Key:
Format in all cases: cell-based
MM.1S cells = assay: Effect of the compound on the proliferation of MM.1S cells (MTS); details: Homo sapiens, MM1.S, 168 h, 7 days, read-out: Cell inhibitory activity (IC50)
Procedure: MM.1S cells were cultured with 1640 plus 10% fetal bovine serum and collected. The cell concentration was diluted according to the action time of 7 days, and 180 ul cell suspension was added to each well of the 96-well cell plate to make the cell count to be 20,000. 20 ul of DMSO with a final concentration of 0.2% was added to the control cell wells. The compound was diluted 5-fold with the 10 mM stock solution, and 20 ul was also added to the compound cell wells (the final concentration of DMSO is 0.2%). The cells were placed in a 37° C., 5% CO2 incubator and incubated for 7 days. After preparing the reaction solution according to the MTS kit (Promega, G5430), 20 μL was added to each well, incubated in a 37° C., 5% CO2 incubator for 3-4 h. Read the 490 nm absorbance value with a microtiter plate, and used the 690 nm absorbance value as the background value and OD490-OD690 as the final initial data. The formula for calculating the inhibition rate of the compound is: inhibition rate=(OD DMSO-ODcompound)/(ODDMSO-Oblank)×100%. The compound's proliferation inhibition IC50 was fitted by Graph Pad Prism 5.0. The experiment was repeated three times, and three parallel experiments were used to calculate the average and standard deviation each time.

Mino cells = assay: Effect of the compound on the proliferation of Mino cells (MTS); details: Homo sapiens, 72 h, 3 days, read-out: Inhibitory activity (IC50)
Procedure: Mino cells were cultured with 1640 plus […] and collected. The cell concentration was diluted according to the action time of 3 days, and 90 ul cell suspension was added to each well of the 96-well cell plate to make the cell count to be 8000. 10 ul of DMSO with a final concentration of 0.2% was added to the control cell wells. The compound was diluted 5-fold with the 10 mM stock solution, and 10 ul was also added to the compound cell wells (the final concentration of DMSO was 0.2%). The cells were placed in a 37° C., […] incubator and incubated for 3 days. After preparing the reaction solution according to the MTS kit (Promega, G5430), 20 μL was added to each well, incubated in a 37° C., 5% CO2 incubator for 3-4 h. Read the 490 nm absorbance value with a microtiter plate, and used the 690 nm absorbance value as the background value and OD490-OD690 as the final initial data. The formula for calculating the inhibition rate of the compound was: inhibition rate=(OD DMSO-ODcompound)/(ODDMSO-Oblank)×100%. The compound's proliferation inhibition IC50 was fitted by Graph Pad Prism 5.0. The experiment was repeated three times, and three parallel experiments were used to calculate the average and standard deviation each time.

MV-4-11 cells = assay: Effect of the compound on proliferation of MV-4-11 cells (MTS); details: Homo sapiens, MV4-11, 168 h, 7 days, MTS, read-out: Inhibitory activity (IC50)
Procedure: MV-4-11 cells were cultured with IMDM plus 10% fetal bovine serum and collected. The cell concentration was diluted according to the action time of 7 days, and 180 ul of cell suspension was added to each well of a 96-well cell plate to make the cell count to be 2000. 20 ul of DMSO with a final concentration of 0.2% was added to the control cell wells. The compound was diluted 5-fold with the 10 mM stock solution, and 20 ul was also added to the compound cell wells (the final concentration of DMSO was 0.2%). The cells were placed in a 37° C., 5% CO2 incubator and incubated for 7 days. After preparing the reaction solution according to the MTS kit (Promega, G5430), 20 μL was added to each well, incubated in a 37° C., 5% CO2 incubator for 3-4 h. Read the 490 nm absorbance value with a microtiter plate, and used the 690 nm absorbance value as the background value and OD490-OD690 as the final initial data. The formula for calculating the inhibition rate of the compound was: inhibition rate=(OD DMSO-ODcompound)/(ODDMSO-Oblank)×100%. The compound's proliferation inhibition IC50 was fitted by Graph Pad Prism 5.0. The experiment was repeated three times, and three parallel experiments were used to calculate the average and standard deviation each time. The cell viability test results were shown in Table 3: A means cell viability IC50<1 μM, B means cell viability 1 μM≤IC50≤20 μM, C means cell viability IC50>20 μM.

| Compound | IC50 (MM.1S cells) | IC50 (MV-4-11 cells) | IC50 (Mino cells) |
| --- | --- | --- | --- |
| O=C1CCC(N2Cc3c(OCc4cnc(-c5ccc(Cl)c(Cl)c5)o4)cccc3C2=O)C(=O)N1 (centres unmarked) [Compound 91, 3-(4-((2-(3,4-dichlorophenyl)oxazol-5-yl)methoxy)-1-oxoisoindol-2-yl) piperidine-2,6-dione] | < 150 nM |  |  |
| C[C@]12CC3CC(n4cc(COc5cccc6c5CN(C5CCC(=O)NC5=O)C6=O)nn4)(C1)C[C@@](C)(C3)C2 (stereo partly drawn) [Compound 89, 3-(4-((1-((1R, 3R, 5S, 7R)-3,5-dimethyladamantin-1-yl)-1H-1,2,3-triazol-4-yl)methoxy)-1-isoindolin-2-yl) piperidin-2,6-dione] | > 20000 nM |  |  |
| [2H]c1c([2H])c([2H])c(-n2cc(COc3cccc4c3CN(C3CCC(=O)NC3=O)C4=O)nn2)c([2H])c1[2H] (centres unmarked) [Compound 78, 3-(1-oxo-4-((1-(phenyl-D5)-1H-1,2,3-triazol-4-yl)methoxy)isoindolin-2-yl) piperidine-2,6-dione] | < 150 nM |  |  |
| O=C1CCC(N2Cc3c(NCc4cnc(-c5ccc(OC(F)(F)F)cc5)o4)cccc3C2=O)C(=O)N1 (centres unmarked) [Compound 82] | < 150 nM |  |  |
| O=C1CCC(N2Cc3c(OCc4cn(-c5ccc6ncsc6c5)nn4)cccc3C2=O)C(=O)N1 (centres unmarked) [Compound 23, 3-(4-((1-(benzo [d]thiazol-6)-1H-1,2,3-triazol-4-(methoxy)-1-oxoisoindolin-2-)piperidine-2,6-dione] | < 150 nM |  | < 150 nM |
| O=C1CCC(N2Cc3c(OCc4cn(C5C6CC7CC(C6)CC5C7)nn4)cccc3C2=O)C(=O)N1 [Compound 87, 3-(4-((1-((1R, 3R, 5R, 7R)-adamantan-2-yl)-1H-1,2,3-triazol-4-yl)methoxy)-1-isoindolin-2-yl) piperidin-2,6-dione] | < 150 nM |  |  |
| O=C1CCC(N2Cc3c(OCC4CCC(c5ccc(OC(F)(F)F)cc5)CC4)cccc3C2=O)C(=O)N1 (centres unmarked) [Compound 72, 3-(1-oxo-4-((4-(4-(trifluoromethoxy)phenyl)cyclohexyl)methoxy)isoindolin-2-) piperidine-2,6-dione] | < 150 nM |  |  |
| O=C1CCC(N2Cc3c(OCc4cn(Cc5cccc(C(F)(F)F)c5)nn4)cccc3C2=O)C(=O)N1 (centres unmarked) [Compound 6, 3-(1-oxo-4-((1-(3-(trifluoromethyl)benzyl)-1H-1,2,3-triazol-4-)methoxy)isoindolin-2-) piperidine-2,6-dione] | < 150 nM |  |  |
| O=C1CCC(N2Cc3c(OCc4cn(C56CC7CC(CC(O)(C7)C5)C6)nn4)cccc3C2=O)C(=O)N1 [Compound 86, 3-(4-((1-((1R, 3S, 5R, 7S)-3-hydroxyadamantan-1-yl)-1H-1,2,3-triazol-4-yl)methoxy)-1-isoindolin-pyridin-2-yl) piperidin-2,6-dione] | > 20000 nM |  |  |
| O=C1CCC(N2Cc3c(OCc4cn([C@@H](CO)Cc5ccccc5)nn4)cccc3C2=O)C(=O)N1 (some centres unmarked) [Compound 53] | < 150 nM |  |  |
| O=C1CCC(N2Cc3c(OCc4nnc(-c5ccc(OC(F)(F)F)cc5)s4)cccc3C2=O)C(=O)N1 (centres unmarked) [Compound 41, 3-(1-oxo-4-((5-(4-trifluoromethoxyphenyl)-1,3,4-thiadiazol-2-)methoxy)isoindolin-2-) piperidine-2,6-dione] | < 150 nM |  | 150 to 20000 nM |

Second part, led by results:

| IC50 (MM.1S cells) | IC50 (MV-4-11 cells) | Compound | IC50 (Mino cells) |
| --- | --- | --- | --- |
| < 150 nM |  | O=C1CCC(N2Cc3c(OCc4cnc(-c5ccc(OC(F)(F)F)cc5)s4)cccc3C2=O)C(=O)N1 (centres unmarked) [Compound 44, 3-(1-oxo-4-((2-(4-trifluoromethoxyphenyl)thiazol-5-)methoxy)isoindolin-2-) piperidine-2,6-dione] | < 150 nM |
| < 150 nM | < 1000 nM | O=C1CCC(N2Cc3c(OCc4cn(-c5ccc(Cl)cc5)nn4)cccc3C2=O)C(=O)N1 (centres unmarked) [Compound 74, 3-(4-((1-(4-chlorophenyl)-1H-1,2,3-triazol-4-yl)methoxy)-1-oxoisoindolin-2-yl) piperidine-2,6-dione] |  |
| < 150 nM |  | O=C1CCC(N2Cc3c(OCc4cn(-c5ccc(N6CCOCC6)cc5)nn4)cccc3C2=O)C(=O)N1 (centres unmarked) [Compound 19, 3-(4-((1-(4-morpholinophenyl)-1H-1,2,3-triazol-4-)methoxy)-1-oxoisoindolin-2-) piperidine-2,6-dione] | 150 to 20000 nM |
| < 150 nM | < 1000 nM | O=C1CCC(N2Cc3c(OCc4ncc(-c5ccc(OC(F)(F)F)cc5)o4)cc(F)cc3C2=O)C(=O)N1 (centres unmarked) [Compound 81, 3-(6-fluoro-1-oxo-4-((5-(4-(trifluoromethoxy)phenyl)oxazol-2-yl)methoxy)isoindolin-2-yl) piperidine-2,6-dione] |  |
| < 150 nM |  | O=C1CCC(N2Cc3c(OCc4cn(-c5ccc(OCC6CCOCC6)cc5)nn4)cccc3C2=O)C(=O)N1 (centres unmarked) [Compound 29, 3-(1-oxo-4-((1-(4-((2H-tetrahydropyran-4-)methoxy)phenyl)-1H-1,2,3-triazol-4-)methoxy)isoindolin-2-) piperidine-2,6-dione] | 150 to 20000 nM |
| < 150 nM |  | O=C1CCC(N2Cc3c(OCc4cn(-c5ccc(O[C@H]6CCOC6)cc5)nn4)cccc3C2=O)C(=O)N1 (stereo partly drawn) [Compound 25, 3-(1-oxo-4-((1-(4-(((S)-tetrahydrofuran-3-)oxy)phenyl)-1H-1,2,3-triazol-4-)methoxy)isoindolin-2-)piperidine-2,6-dione] | < 150 nM |
| < 150 nM |  | O=C1CCC(N2Cc3c(OCc4cn(-c5ccc(O[C@@H]6CCOC6)cc5)nn4)cccc3C2=O)C(=O)N1 (stereo partly drawn) [Compound 24, 3-(1-oxo-4-((1-(4-(((R)-tetrahydrofuran-3-)oxy)phenyl)-1H-1,2,3-triazol-4-)methoxy)isoindolin-2-)piperidine-2,6-dione] | < 150 nM |
| < 150 nM | < 1000 nM | O=C1CCC(N2Cc3c(OCc4cn(C56CC7CC(CC(C7)C5)C6)nn4)cccc3C2=O)C(=O)N1 [Compound 76, 3-(4-((1-((3S, 5S, 7S)-adamantan-1-yl)-1H-1,2,3-triazol-4-yl)methoxy)-1-isoindolin-2-yl) piperidin-2,6-dione] |  |
| < 150 nM |  | O=C1CCC(N2Cc3c(OCc4ccc(-c5ccc(OC(F)(F)F)cc5)o4)cccc3C2=O)C(=O)N1 (centres unmarked) [Compound 42, 3-(1-oxo-4-((5-(4-trifluoromethoxyphenyl)furan-2-)methoxy)isoindolin-2-) piperidine-2,6-dione] | < 150 nM |
| < 150 nM |  | O=C1CCC(N2Cc3c(NCc4ncc(-c5ccc(OC(F)(F)F)cc5)o4)cccc3C2=O)C(=O)N1 (centres unmarked) [Compound 93] | 150 to 20000 nM |
| < 150 nM |  | O=C1CCC(N2Cc3c(NCc4cnc(-c5cccc(OC(F)(F)F)c5)o4)cccc3C2=O)C(=O)N1 (centres unmarked) [Compound 90] | < 150 nM |
| < 150 nM |  | O=C1CCC(N2Cc3c(OCc4ncc(-c5ccc(OC(F)(F)F)cc5)o4)cccc3C2=O)C(=O)N1 (centres unmarked) [Compound 40, 3-(1-oxo-4-((5-(4-trifluoromethoxyphenyl)oxazol-2-)methoxy)isoindolin-2-) piperidine-2,6-dione] | < 150 nM |
| < 150 nM |  | O=C1CCC(N2Cc3c(OCc4nnc(-c5ccc(OC(F)(F)F)cc5)o4)cccc3C2=O)C(=O)N1 (centres unmarked) [Compound 43, 3-(1-oxo-4-((5-(4-trifluoromethoxyphenyl)-1,3,4-oxadiazol-2-)methoxy)isoindolin-2-) piperidine-2,6-dione] | < 150 nM |
| < 150 nM |  | O=C1CCC(N2Cc3c(OCc4ncc(-c5ccc(OC(F)(F)F)cc5)s4)cccc3C2=O)C(=O)N1 (centres unmarked) [Compound 39, 3-(1-oxo-4-((5-(4-trifluoromethoxyphenyl)thiazol-2-)methoxy)isoindolin-2-) piperidine-2,6-dione] | 150 to 20000 nM |

Source: US20220041578A1, “ISOINDOLINE COMPOUND, AND PREPARATION METHOD, PHARMACEUTICAL COMPOSITION, AND APPLICATION OF ISOINDOLINE COMPOUND” (Shanghai Institute of Meteria Medica, Chinese Academy of …, priority 2018, published 2022)
